Numbers after ± are expanded uncertainties.
Assays:
[1] = refractive index (Na D-line) (dimensionless); settings: 293.15 K; 101.33 kPa; Liquid; Standard Abbe refractometry
[2] = 293.15 K; 101.3 kPa; Liquid; Vibrating tube method

Row | refractive index [1] | mass density [2] [kg/m3] | SMILES
1 | 1.3902 ± 0.0025 | 873.4 ± 1.6 | CC(=O)OCC(C)C [2-methylpropyl ethanoate]
2 | 1.3616 ± 0.0025 | 789.2 ± 1.6 | CCO [ethanol]
3 | 1.3285 ± 0.0025 | 792.1 ± 1.6 | CO [methanol]

— the NIST ThermoML archive (doi:10.1021/acs.jced.6b00949)
